The target of test [1] is T1, BRAF V600E (Homo sapiens, UniProt P15056, V600E).
T1 construct: expressed in transfected cells
In words: Cellular assay of target protein degradation, T-Rex 293 cells stably transfected with HA-BRAF_V600E (HA immunofluorescence, high content imaging). The class given is cell-based. To be noted: T-Rex 293 HA-BRAF V600E; for DC50: half maximal degradation, read-out: BRaf V600E DC50; for Dmax: maximum degradation observed. In short, it runs like this:
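24 h compound exposure, 1 μM–0.1 nM final, 0.1% DMSO, 37 °C; cells induced with 1 ng/mL doxycycline. PFA fix, Triton permeabilize, anti-HA overnight 4 °C, Hoechst/phalloidin counterstain. Output: DC50, Dmax as % control.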

Test [2] addresses T2, BRAF G466V (Homo sapiens, UniProt P15056, G466V).
T2 construct: expressed in transfected cells
In words: Cellular assay of target protein degradation, T-Rex 293 cells stably transfected with HA-BRAF G466V (HA immunofluorescence, high content imaging). The class given is cell-based. Particulars: T-Rex 293 HA-BRAF G466V; for DC50: half maximal degradation, read-out: BRaf G466V DC50; for Dmax: maximum degradation observed. The method in brief:
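24 h compound, 30 nM–3 pM final, 0.1% DMSO, 37° C; HA-BRAF G466V induced with 0.75 ng/mL doxycycline. PFA fix, Triton perm, anti-HA + Alexa fluor secondary, Hoechst/phalloidin counterstain; imaging. DC50, Dmax (% of control).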

T1 sequence (P15056 whole entry V600E): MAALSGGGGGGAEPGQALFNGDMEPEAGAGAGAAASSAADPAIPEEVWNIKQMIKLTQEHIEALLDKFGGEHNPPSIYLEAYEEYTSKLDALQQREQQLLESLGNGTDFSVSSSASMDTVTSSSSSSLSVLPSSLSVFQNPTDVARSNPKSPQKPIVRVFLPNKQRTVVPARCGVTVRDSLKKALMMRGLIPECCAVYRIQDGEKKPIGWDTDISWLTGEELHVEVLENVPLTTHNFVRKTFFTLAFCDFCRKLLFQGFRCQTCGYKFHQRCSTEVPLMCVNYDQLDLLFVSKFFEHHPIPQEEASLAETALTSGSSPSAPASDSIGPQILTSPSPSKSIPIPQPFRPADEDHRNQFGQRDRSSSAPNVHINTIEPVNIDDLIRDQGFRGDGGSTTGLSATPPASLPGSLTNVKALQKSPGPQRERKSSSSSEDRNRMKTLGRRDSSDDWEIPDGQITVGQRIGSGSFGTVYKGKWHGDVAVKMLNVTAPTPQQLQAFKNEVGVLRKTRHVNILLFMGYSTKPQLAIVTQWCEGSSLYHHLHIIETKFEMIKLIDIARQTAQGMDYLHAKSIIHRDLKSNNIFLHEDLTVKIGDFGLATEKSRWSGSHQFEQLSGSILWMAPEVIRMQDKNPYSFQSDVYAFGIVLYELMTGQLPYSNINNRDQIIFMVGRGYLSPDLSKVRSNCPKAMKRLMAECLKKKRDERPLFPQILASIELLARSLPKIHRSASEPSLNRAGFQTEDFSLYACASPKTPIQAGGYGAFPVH
T2 sequence (P15056 whole entry G466V): as the sequence (P15056 whole entry V600E) above, with G466V, E600V counted along it

In the case of `O=C1CCC(N2Cc3cc(CCOCCN4CCN(c5ccc(-c6cnc7[nH]cc(C(=O)c8c(F)ccc(NS(=O)(=O)N9CC[C@@H](F)C9)c8F)c7c6)cc5)CC4)ccc3C2=O)C(=O)N1` (stereo partly drawn) [Compound 148, (3R)-N-[3-(5-{4-[4-(2-{2-[2-(2,6-dioxopiperidin-3-yl)-1-oxo-2,3-dihydro-1H-isoindol-5-yl]ethoxy}ethyl)piperazin-1-yl]phenyl}-1H-pyrrolo[2,3-b]pyridine-3-carbonyl)-2,4-difluorophenyl]-3-fluoropyrrolidine-1-sulfonamide], the DC50 (in general, the midpoint of the concentration-degradation curve) in test [1] was in the range of 5 to 50 nM; in test [2], 1 to 10 nM. In addition, the Dmax – broadly, the greatest extent of degradation seen – in test [1] was 35 to 70%; in test [2], more than 70%.

Turning to `O=C1CCC(N2Cc3cc(C4CCN(CCc5ccc(-c6cnc7[nH]cc(C(=O)c8c(F)ccc(NS(=O)(=O)N9CC[C@@H](F)C9)c8F)c7c6)cc5)[C@H](CO)C4)ccc3C2=O)C(=O)N1` (stereo partly drawn) [Compound 149, (3R)-N-{3-[5-(4-{2-[(2S)-4-[2-(2,6-dioxopiperidin-3-yl)-1-oxo-2,3-dihydro-1H-isoindol-5-yl]-2-(hydroxymethyl)piperidin-1-yl]ethyl}phenyl)-1H-pyrrolo[2,3-b]pyridine-3-carbonyl]-2,4-difluorophenyl}-3-fluoropyrrolidine-1-sulfonamide], the DC50 in test [1] lay in the range of 50 to 500 nM; in test [2] it was 1 to 10 nM. For the same molecule, the Dmax in test [1] is 35 to 70%; in test [2], more than 70%.

Take `O=C1CCC(N2Cc3cc(C4CCN(CCc5ccc(-c6cnc7[nH]cc(C(=O)c8c(F)ccc(NS(=O)(=O)N9CC[C@@H](F)C9)c8F)c7c6)cc5)[C@@H](CO)C4)ccc3C2=O)C(=O)N1` (stereo partly drawn) [Compound 150, (3R)-N-{3-[5-(4-{2-[(2R)-4-[2-(2,6-dioxopiperidin-3-yl)-1-oxo-2,3-dihydro-1H-isoindol-5-yl]-2-(hydroxymethyl)piperidin-1-yl]ethyl}phenyl)-1H-pyrrolo[2,3-b]pyridine-3-carbonyl]-2,4-difluorophenyl}-3-fluoropyrrolidine-1-sulfonamide]: in test [1], the DC50 fell in the range of 50 to 500 nM and the Dmax was 35 to 70%. In test [2], the DC50 is 1 to 10 nM and the Dmax was more than 70%.

As for `O=C1CCC(N2Cc3cc(CCOCCN4CCC(c5ccc(-c6cnc7[nH]cc(C(=O)c8c(F)ccc(NS(=O)(=O)N9CC[C@@H](F)C9)c8F)c7c6)cc5)CC4)ccc3C2=O)C(=O)N1` (stereo partly drawn) [Compound 151, (3R)-N-[3-(5-{4-[1-(2-{2-[2-(2,6-dioxopiperidin-3-yl)-1-oxo-2,3-dihydro-1H-isoindol-5-yl]ethoxy}ethyl)piperidin-4-yl]phenyl}-1H-pyrrolo[2,3-b]pyridine-3-carbonyl)-2,4-difluorophenyl]-3-fluoropyrrolidine-1-sulfonamide], the DC50 in test [1] lay within 50 to 500 nM; in test [2], 1 to 10 nM. Besides, the Dmax was 35 to 70% in test [1] and more than 70% in test [2].

Turning to `O=C1CCC(N2Cc3cc(N4CCN(CCc5ccc(-c6cnc7[nH]cc(C(=O)c8c(F)ccc(NS(=O)(=O)N9CC[C@@H](F)C9)c8F)c7c6)cc5)CC4)c(F)cc3C2=O)C(=O)N1` (stereo partly drawn) [Compound 152, (3R)-N-(3-{5-[4-(2-{4-[2-(2,6-dioxopiperidin-3-yl)-6-fluoro-1-oxo-2,3-dihydro-1H-isoindol-5-yl]piperazin-1-yl}ethyl)phenyl]-1H-pyrrolo[2,3-b]pyridine-3-carbonyl}-2,4-difluorophenyl)-3-fluoropyrrolidine-1-sulfonamide], in test [1], the DC50 lay in the range of 5 to 50 nM and the maximal degradation (Dmax) was in the range of 35 to 70%. In test [2], the DC50 was 1 to 10 nM and the Dmax is more than 70%.

Turning to `O=C1CCC(N2Cc3cc(N4CCC(CN5CCN(Cc6ncc(-c7cnc8[nH]cc(C(=O)c9c(F)ccc(NS(=O)(=O)N%10CC[C@@H](F)C%10)c9F)c8c7)cn6)CC5)CC4)ccc3C2=O)C(=O)N1` (stereo partly drawn) [Compound 153, (3R)-N-{3-[5-(2-{[4-({1-[2-(2,6-dioxopiperidin-3-yl)-1-oxo-2,3-dihydro-1H-isoindol-5-yl]piperidin-4-yl}methyl)piperazin-1-yl]methyl}pyrimidin-5-yl)-1H-pyrrolo[2,3-b]pyridine-3-carbonyl]-2,4-difluorophenyl}-3-fluoropyrrolidine-1-sulfonamide], in test [1], the DC50 lay in the range of 50 to 500 nM and the Dmax is more than 70%. Moreover, in test [2], the DC50 lay within 1 to 10 nM and the Dmax is more than 70%.

`O=C1CCC(N2Cc3cc(N4CCC(CN5CCC(Cc6ccc(-c7cnc8[nH]cc(C(=O)c9c(F)ccc(NS(=O)(=O)N%10CC[C@@H](F)C%10)c9F)c8c7)cc6)CC5)CC4)ccc3C2=O)C(=O)N1` (stereo partly drawn) [Compound 154, (3R)-N-{3-[5-(4-{[1-({1-[2-(2,6-dioxopiperidin-3-yl)-1-oxo-2,3-dihydro-1H-isoindol-5-yl]piperidin-4-yl}methyl)piperidin-4-yl]methyl}phenyl)-1H-pyrrolo[2,3-b]pyridine-3-carbonyl]-2,4-difluorophenyl}-3-fluoropyrrolidine-1-sulfonamide]: in test [1], the DC50 lay within 5 to 50 nM and the Dmax was in the range of 35 to 70%. Further, in test [2], the DC50 was less than 1 nM and the Dmax was more than 70%.

In the case of `CN(CC1CCN(c2ccc(-c3cnc4[nH]cc(C(=O)c5c(F)ccc(NS(=O)(=O)N6CC[C@@H](F)C6)c5F)c4c3)cc2)CC1)[C@H]1C[C@@H](Oc2ccc3c(c2)CN(C2CCC(=O)NC2=O)C3=O)C1` (stereo partly drawn) [Compound 155, (3R)-N-[2,4-difluoro-3-(5-{4-[4-({methyl[(1s,3s)-3-{[2-(2,6-dioxopiperidin-3-yl)-1-oxo-2,3-dihydro-1H-isoindol-5-yl]oxy}cyclobutyl]amino}methyl)piperidin-1-yl]phenyl}-1H-pyrrolo[2,3-b]pyridine-3-carbonyl)phenyl]-3-fluoropyrrolidine-1-sulfonamide], in test [1], the DC50 fell in the range of 5 to 50 nM and the Dmax was in the range of 35 to 70%. Moreover, in test [2], the DC50 is 1 to 10 nM and the Dmax was more than 70%.

Take `O=C1CCN(c2ccc(N3CCC(CN4CC5(C4)CN(c4ccc(-c6cnc7[nH]cc(C(=O)c8c(F)ccc(NS(=O)(=O)N9CC[C@@H](F)C9)c8F)c7c6)cc4)C5)CC3)cc2F)C(=O)N1` [Compound 156, (3R)-N-[3-(5-{4-[6-({1-[4-(2,4-dioxo-1,3-diazinan-1-yl)-3-fluorophenyl]piperidin-4-yl}methyl)-2,6-diazaspiro[3.3]heptan-2-yl]phenyl}-1H-pyrrolo[2,3-b]pyridine-3-carbonyl)-2,4-difluorophenyl]-3-fluoropyrrolidine-1-sulfonamide]: the 50% degradation concentration (DC50) in test [1] fell in the range of 5 to 50 nM; in test [2], 1 to 10 nM. The Dmax in test [1] is 35 to 70%; in test [2], more than 70%.

In the case of `O=C1CCC(N2Cc3cc(C4CCN(CC5CCN(c6ccc(-c7cnc8[nH]cc(C(=O)c9c(F)ccc(NS(=O)(=O)N%10CC[C@@H](F)C%10)c9F)c8c7)cc6)CC5)CC4)c(F)cc3C2=O)C(=O)N1` (stereo partly drawn) [Compound 157, (3R)-N-[3-(5-{4-[4-({4-[2-(2,6-dioxopiperidin-3-yl)-6-fluoro-1-oxo-2,3-dihydro-1H-isoindol-5-yl]piperidin-1-yl}methyl)piperidin-1-yl]phenyl}-1H-pyrrolo[2,3-b]pyridine-3-carbonyl)-2,4-difluorophenyl]-3-fluoropyrrolidine-1-sulfonamide], in test [1], the DC50 was 5 to 50 nM and the Dmax lay within 35 to 70%. In addition, in test [2], the DC50 fell in the range of 1 to 10 nM and the Dmax was more than 70%.

For `O=C1CCC(N2Cc3cc(N4CC5(CN(CCOc6ccc(-c7cnc8[nH]cc(C(=O)c9c(F)ccc(NS(=O)(=O)N%10CC[C@@H](F)C%10)c9F)c8c7)cn6)C5)C4)ccc3C2=O)C(=O)N1` (stereo partly drawn) [Compound 158, (3R)-N-(3-{5-[6-(2-{6-[2-(2,6-dioxopiperidin-3-yl)-1-oxo-2,3-dihydro-1H-isoindol-5-yl]-2,6-diazaspiro[3.3]heptan-2-yl}ethoxy)pyridin-3-yl]-1H-pyrrolo[2,3-b]pyridine-3-carbonyl}-2,4-difluorophenyl)-3-fluoropyrrolidine-1-sulfonamide], the results for the DC50 in test [1] and in test [2] were 5 to 50 nM and 1 to 10 nM, respectively. Moreover, the Dmax in test [1] is 35 to 70%; in test [2] it was more than 70%.

Take `O=C1CCC(N2Cc3cc(N4CC(C5CN(c6ccc(-c7cnc8[nH]cc(C(=O)c9c(F)ccc(NS(=O)(=O)N%10CC[C@@H](F)C%10)c9F)c8c7)cc6)C5)C4)ccc3C2=O)C(=O)N1` (stereo partly drawn) [Compound 159, (3R)-N-{3-[5-(4-{1′-[2-(2,6-dioxopiperidin-3-yl)-1-oxo-2,3-dihydro-1H-isoindol-5-yl]-[3,3′-biazetidin]-1-yl}phenyl)-1H-pyrrolo[2,3-b]pyridine-3-carbonyl]-2,4-difluorophenyl}-3-fluoropyrrolidine-1-sulfonamide]: the DC50 in test [1] is more than 500 nM; in test [2], more than 30 nM.

For `O=C1CC[C@H](N2Cc3cc(C4CCN(CC5CCN(c6ccc(-c7cnc8[nH]cc(C(=O)c9c(F)ccc(NS(=O)(=O)N%10CC[C@@H](F)C%10)c9F)c8c7)cc6)CC5)CC4)ccc3C2=O)C(=O)N1` [Compound 160, (3R)—N-[3-[5-[4-[4-[[4-[2-[(3S)-2,6-dioxo-3-piperidyl]-1-oxo-isoindolin-5-yl]-1-piperidyl]methyl]-1-piperidyl]phenyl]-1H-pyrrolo[2,3-b]pyridine-3-carbonyl]-2,4-difluoro-phenyl]-3-fluoro-pyrrolidine-1-sulfonamide], the results for the DC50 in test [1] and in test [2] were less than 5 nM and less than 1 nM, respectively. Also, the Dmax was 35 to 70% in test [1] and more than 70% in test [2].

The record behind these values is US12180193B2, “Accelerating fibrosarcoma protein degrading compounds and associated methods of use” (Arvinas Operations, Inc., priority 2020, dated 2024).
